Data on six molecules can be found in patent publication US20090215638A1, “ANTIBIOTIC SUSCEPTIBILITY AND VIRULENCE FACTOR DETECTION IN PSEUDOMONAS AERUGINOSA” (priority 2005, published 2009).

Assay [1] concerns P. aeruginosa clinical isolates. The experiment in a line: Antibiotic susceptibility testing, NEG MIC Type 30 panel on MicroScan WalkAway-96 SI, MICs interpreted according to NCCLS guidelines. It counts as cell-based, Pseudomonas aeruginosa. Conditions: for 60 MIC: MIC of resistant isolates. The source says: The wild-type reference strain P. aeruginosa PAO1 was obtained from the ATCC (AT47085). The other P. aeruginosa strains were collected from patients at the Robert Bosch Hospital in Stuttgart, Germany. They were recovered from respiratory samples (n=51), swabs (n=5), urine (n=2) and feces (n=2). All isolates were identified with the API 20NE system (bioMerieux, Marcy l'Etoile, France) and the NEG Breakpoint Combo Type 30 panel on the MicroScan WalkAway ®-96 SI system (Dade Behring, Liederbach, Germany). All bacterial strains were either routinely cultured at 37° C. on Mueller-Hinton (MH) agar or grown in Luria Bertani broth (LB).
The antibiotic susceptibility was determined with the NEG MIC Type 30 panel on the MicroScan WalkAway ®-96 SI system. The MICs were interpreted according to the NCCLS guidelines.
The test collective of P. aeruginosa isolates was recovered from three intensive care units (ICU) or other hospital wards as far as an unusual multidrug resistance was observed. […] 4.

Assay [2] has the same test system. On the set-up: species or system Pseudomonas aeruginosa. Conditions: predicted from mutations and resistance genes found by array in 60 isolates.
Experimental: Chromosomal DNA was extracted with the QIAmp DNA Mini Kit, plasmid DNA with the QIAprep Spin Miniprep Kit according to manufacturer's instructions (Qiagen, Hilden, Germany). A set of 4 multiplex PCRs (Tab. 1) was set up to amplify the sequences of interest from the chosen genes. The PCRs were carried out with the Advantage®-GC Genomic PCR Kit (BD Bioscience, San Jose, USA) according to manufacturer's instructions, for fluorescence labeling 5 μl of each 1 mM dNTP was used, for dCTP a 2:3 mixture of Cy3-dCTP and dCTP. The cycle reactions consisted of 30 cycles of 30 s at 95° C., 30 s at 55° C. and 1 min at 72° C. PCR products were purified with the QIAquick PCR Purification Kit (Qiagen, Hilden, Germany) according to the manufacturer's instructions. The quality and sizes of PCR products were checked on a lab-on-a-chip Bioanalyzer 2100 electrophoresis with the DNA 1500 LabChip kit (Agilent, Böblingen, Germany). Sequencing was performed on the ABI PRISM® 310 Genetic Analyzer using the BigDyee® Terminator Cycle Sequencing Kit v1.1 (Applied Biosystems, Foster City, USA). The manufacturer's protocol was followed using the same primers as for the multiplex PCRS. […]
The oligonucleotide arrays were scanned with a arrayWoRx Biochip Reader (Applied Precision, Marlborough, UK). The scanner settings for fluorescence signal acquisition were set to “High Precision” and 0.2 s acquisition time. […]
Setting [3] is: Table 3, test collective of 60 clinical isolates.
Where [4] appears, read: Table 6, phenotypic resistance rate, 60 clinical isolates.
[5] abbreviates: Table 6, phenotypic resistance, 60 clinical isolates.

Consider gentamicin, for which the “% of resistant isolates out of 60” value in assay [1] (setting [3]) and in assay [1] (setting [4]) was 37% throughout. The “Number of resistant isolates out of 60” value in assay [1] (setting [3]) and in assay [1] (setting [5]) was 22 throughout. In addition, in assay [1] (Table 6), the “60 MIC” value is over 8 µg/mL. For the same molecule, the “Cumulative resistance predicttion deduced from array” value in assay [2] was 45%.

Consider `NC[C@H]1O[C@H](O[C@H]2[C@H](O)[C@@H](O[C@H]3O[C@H](CO)[C@@H](O)[C@H](N)[C@H]3O)[C@H](N)C[C@@H]2N)[C@H](N)C[C@@H]1O` [Tobramycin, tobramycin], for which, in assay [1] (first of 3 consecutive isolates from the same patient), the “Susceptibility profile, Isolate 1” value was “susceptible”. Moreover, in assay [1] (last of 3 consecutive isolates from the same patient, within three weeks), the “Susceptibility profile, Isolate 3” value is “resistance”. Moreover, the “Susceptibility profile, Isolate 2” value in assay [1] (second of 3 consecutive isolates from the same patient, collected one week after the first) was “susceptible”.

In the case of `CC(C)(O/N=C(\C(=O)N[C@@H]1C(=O)N2C(C(=O)[O-])=C(C[n+]3ccccc3)CS[C@H]12)c1csc(N)n1)C(=O)O` [Ceftazidim, ceftazidime], the “% of resistant isolates out of 60” value in assay [1] (setting [3]) and in assay [1] (setting [4]) was 33% in each case. Further, the “Number of resistant isolates out of 60” value in assay [1] (setting [3]) and in assay [1] (setting [5]) was 20 each time. Moreover, the “60 MIC” value in assay [1] (Table 6) is over 16 µg/mL.

Turning to piperacillin/tazobactam, the “% of resistant isolates out of 60” value in assay [1] (setting [3]) and in assay [1] (setting [4]) was 33% each time. Moreover, the “Number of resistant isolates out of 60” value in assay [1] (setting [3]) and in assay [1] (setting [5]) was 20 throughout. Besides, the “60 MIC” value in assay [1] (Table 6) was over 64 µg/mL.

Consider colistin, for which the “% of resistant isolates out of 60” value in assay [1] (setting [3]) and in assay [1] (setting [4]) was 0% each time. For the same molecule, the “Number of resistant isolates out of 60” value in assay [1] (setting [3]) and in assay [1] (setting [5]) was 0 each time. In assay [1] (test collective of isolates), the resistance rate is recorded as 0%. In addition, the “Cumulative resistance predicttion deduced from array” value in assay [2] is given as 0%.

As to `C[C@@H](O)[C@H]1C(=O)N2C(C(=O)O)=C(SCCN=CN)C[C@H]12` [Imipenem, imipenem], the susceptibility rate result in assay [1] (test collective of isolates) was “less than 55%”.
